Data taken from publication PMC12784406, “IscS Kinetics in Native Mass Spectrometry Buffers Reveal Key Physiochemical Properties that Influence Enzyme Activity” (Journal of the American Society for Mass Spectrometry, 2025).

Target: T1, IscS (Escherichia coli, UniProt P0A6B7)
T1 construct: pET vector, expressed in E. coli BL21(DE3), HisTrap Ni-NTA and Sephacryl S-300 purified; homodimer
Assay: methylene blue sulfide detection assay, […] nm, anaerobic
Format: biochemical
Settings: 50 mM Tris/150 mM NaCl, pH 8.5, 37 °C, 4 mM DTT; IscS 0.5 uM, without IscU; L-cysteine varied

T1 sequence (P0A6B7 whole entry): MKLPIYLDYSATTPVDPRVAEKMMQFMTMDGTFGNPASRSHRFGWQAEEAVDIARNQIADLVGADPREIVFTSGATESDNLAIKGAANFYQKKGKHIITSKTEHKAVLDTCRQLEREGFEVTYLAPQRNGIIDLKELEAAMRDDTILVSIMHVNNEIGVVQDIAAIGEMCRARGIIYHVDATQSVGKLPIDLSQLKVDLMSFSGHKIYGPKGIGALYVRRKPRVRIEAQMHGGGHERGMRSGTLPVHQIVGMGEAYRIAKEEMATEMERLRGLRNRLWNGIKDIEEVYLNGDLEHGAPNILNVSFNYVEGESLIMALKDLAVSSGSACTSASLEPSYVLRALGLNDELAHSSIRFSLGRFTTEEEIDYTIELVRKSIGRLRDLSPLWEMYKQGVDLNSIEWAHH

N[C@@H](CS)C(=O)O [L-cysteine]
methylene blue sulfide detection assay, 670 nm, anaerobic: Sulfide production was quantitated at different L-cysteine concentrations to determine the k cat values
